According to ChEMBL document CHEMBL1149987, “Synthesis and biological evaluation of new arachidonic acid analogs” (Bioorg Med Chem Lett, 1994):

Columns and labels:
[1] = biological target: T1, Polyunsaturated fatty acid 5-lipoxygenase (Homo sapiens, UniProt P09917); experiment: Compound was tested for the inhibition of 5-lipoxygenase of human PMN stimulated by calcium ionophore A-23187 for the formation of 5-HETE
T1 sequence (P09917 whole entry): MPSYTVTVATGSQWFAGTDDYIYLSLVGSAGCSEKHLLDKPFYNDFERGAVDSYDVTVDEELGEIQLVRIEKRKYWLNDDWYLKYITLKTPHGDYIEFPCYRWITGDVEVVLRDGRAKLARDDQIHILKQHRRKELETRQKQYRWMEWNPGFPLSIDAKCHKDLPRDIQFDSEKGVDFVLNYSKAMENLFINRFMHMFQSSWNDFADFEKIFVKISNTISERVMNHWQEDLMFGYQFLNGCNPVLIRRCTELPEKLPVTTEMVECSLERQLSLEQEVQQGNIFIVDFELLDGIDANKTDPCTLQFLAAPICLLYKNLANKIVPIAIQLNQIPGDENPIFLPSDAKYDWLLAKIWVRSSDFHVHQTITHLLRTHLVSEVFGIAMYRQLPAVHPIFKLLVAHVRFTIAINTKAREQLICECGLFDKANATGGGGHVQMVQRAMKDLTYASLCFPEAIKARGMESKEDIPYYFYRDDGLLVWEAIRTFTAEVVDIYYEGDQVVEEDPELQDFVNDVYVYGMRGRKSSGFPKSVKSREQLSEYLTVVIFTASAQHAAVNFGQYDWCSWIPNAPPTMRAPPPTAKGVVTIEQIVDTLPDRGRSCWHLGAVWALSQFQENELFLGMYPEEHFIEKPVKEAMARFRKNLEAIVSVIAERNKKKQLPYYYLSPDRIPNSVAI

[2] = biological target: T1, Polyunsaturated fatty acid 5-lipoxygenase; experiment: Compound was tested for the inhibition of 5-lipoxygenase of human PMN stimulated by calcium ionophore A-23187 for the formation of leukotriene B4 (LTB4)

SMILES | IC50 [1] | IC50 [2]
CCCCC/C=C\C/C=C\[C@@H]1CC(C)=C(C)C[C@H]1/C=C\C/C=C\CCCC(=O)O | 1 µM | 1.6 µM
CCCCC/C=C\C/C=C\[C@H]1CC(C)=C(C)C[C@H]1/C=C\C/C=C\CCCC(=O)O | 1.1 µM | 1.9 µM
CCCCC/C=C\C/C=C\[C@@H]1C[C@H]1/C=C\C/C=C\CCCC(=O)O (stereo in doubt; (+)-7a) | 2.9 µM | 2.8 µM
CCCCC/C=C\C/C=C\[C@@H]1C[C@H]1/C=C\C/C=C\CCCC(=O)O (stereo in doubt; (-)-7a) | 1.7 µM | 2.4 µM
